Values of other authors in PubChem BioAssay AID1259410 (Chemical Carcinogenesis Research Information System (CCRIS), 2018).

Tested on: rodent tumor promotion studies, tumor incidence
Test: CCRIS tumor promotion studies
Conditions: Route [Promoter]: DERMAL, Species: MOUSE

**Q.** What does the source list for CCCCCCCCCCCCCC(=O)O[C@@H]1[C@@H](C)[C@@]2(O)[C@@H](C=C(CO)C[C@]3(O)C(=O)C(C)=C[C@@H]23)[C@@H]2C(C)(C)[C@]12OC(C)=O?
**A.** outcome (Carcinogen: DIBENZO[A,L]PYRENE, 191-30-0, Doses [Carcinogen]: 0.25, 1 NMOL IN 100 µL ACETONE, Doses [Promoter]: 2.16 NMOL IN 100 µL ACETONE 2/WK FOR 27 WK BEGINNING 1 WK POST CARCINOGEN DOSE (STUDY DURATION: 28 WK), Route [Carcinogen]: DERMAL, Strain/Sex: SENCAR/FEMALE): skin: tumor; outcome (Carcinogen: DIBENZO[A,L]PYRENE, 191-30-0, Doses [Carcinogen]: 1.33, 4, 12 NMOL IN 100 ML ACETONE ONCE, Doses [Carcinogen]: 1.33, 4, 12 NMOL IN 100 ML ACETONE ONCE, Doses [Promoter]: 1.62 NMOL IN 100 ML ACETONE 2/WK FOR 28 WK BEGINNING 1 WK POST CARCINOGEN DOSE (STUDY DURATION: 30 WK), Route [Carcinogen]: DERMAL, Strain/Sex: SENCAR/FEMALE): skin: tumor; outcome (Carcinogen: DIBENZO[A,L]PYRENE, 191-30-0, Doses [Carcinogen]: 4, 20, 100 NMOL IN 100 µL ACETONE ONCE, Doses [Carcinogen]: 4, 20, 100 NMOL IN 100 µL ACETONE ONCE, Doses [Promoter]: 3.24 NMOL/100 µL ACETONE 2/WK BEGINNING 2 WK POST CARCINOGEN DOSE AND CONTINUING FOR 24 WK (STUDY DURATION: 27 WK), Route [Carcinogen]: DERMAL, Strain/Sex: SENCAR/FEMALE): skin: tumor; outcome (Carcinogen: DIBENZO[A,L]PYRENE, 191-30-0, Doses [Carcinogen]: 33.3, 100, 300 NMOL IN 100 µL ACETONE ONCE, Doses [Carcinogen]: 33.3, 100, 300 NMOL IN 100 µL ACETONE ONCE, Doses [Promoter]: 3.24 NMOL/100 µL ACETONE ONCE 1 WK POST CARCINOGEN DOSE THEN 2/WK BEGINNING 3 WK LATER AND CONTINUING FOR 11 WK (STUDY D, Route [Carcinogen]: DERMAL, Strain/Sex: SENCAR/FEMALE): skin: tumor; outcome (Carcinogen: DIMETHYLBENZ[A]ANTHRACENE, 57-97-6, Doses [Carcinogen]: 0.2 UMOL IN O.2 ML ACETONE ONCE, Doses [Promoter]: 0, 5 UG IN 0.2 ML ACETONE 3/WK ADMINISTERED 7 D POST CARCINOGEN DOSE AND CONTINUING FOR DURATION OF STUDY (STUDY DURATIO, Route [Carcinogen]: DERMAL, Strain/Sex: SWISS/FEMALE): skin: tumor, squamous cell papilloma, keratoacanthoma; outcome (Carcinogen: N-METHYL-N'-NITRO-N-NITROSOGUANIDINE, 70-25-7, Doses [Carcinogen]: 4 UMOL IN 200 µL ACETONE ONCE, Doses [Promoter]: 0, 10 NMOL IN 200 µL ACETONE 2/WK FOR 52 WK BEGINNING 2 WK POST CARCINOGEN DOSE (STUDY DURATION: 52 WK), Route [Carcinogen]: DERMAL, Strain/Sex: C3H/CB/S/GEN/FEMALE): skin: tumor; outcome (Carcinogen: N-METHYL-N'-NITRO-N-NITROSOGUANIDINE; 70-25-7; Doses [Carcinogen]: 4 UMOL IN 200 µL ACETONE ONCE; Doses [Promoter]: 0; 10 NMOL IN 200 µL ACETONE 2/WK FOR 52 WK BEGINNING 2 WK POST CARCINOGEN DOSE STUDY DURATION: 52 WK), Route [Carcinogen]: DERMAL, Strain/Sex: C3H/FEMALE): skin: tumor; outcome (Carcinogen: PHENOXYOXIRANE, 79526-11-7, Doses [Carcinogen]: 5 UMOL IN 0.2 ML 15% DMSO IN ACETONE ONCE, Doses [Promoter]: 0, 15 NMOL IN 0.1 ML ACETONE ONCE 18-24 HR PRIOR TO CARCINOGEN DOSE THEN BEGINNING 1 WK LATER 2/WK FOR DURATION OF STUDY, Route [Carcinogen]: DERMAL, Strain/Sex: ICR/FEMALE): skin: papilloma; outcome (Carcinogen: PHENYL VINYL ETHER, 766-94-9, Doses [Carcinogen]: 5 UMOL IN 0.2 ML 15% DMSO IN ACETONE ONCE, Doses [Promoter]: 0, 15 NMOL IN 0.1 ML ACETONE ONCE 18-24 HR PRIOR TO CARCINOGEN DOSE THEN BEGINNING 1 WK LATER 2/WK FOR DURATION OF STUDY, Route [Carcinogen]: DERMAL, Strain/Sex: ICR/FEMALE): skin: papilloma; outcome (Carcinogen: SYN-1,2-DIHYDROXY-3,4-EPOXY-1,2,3,4-TETRAHYDRO-5,6-DIMETHYLCHRYSENE, 139562-15-5, Doses [Carcinogen]: 100 NMOL IN 0.1 ML ACETONE ONCE, Doses [Promoter]: 0, 2.5 UG IN 0.1 ML ACETONE 3/WK FOR 20 WK BEGINNING 10 D POST CARCINOGEN DOSE (STUDY DURATION: 20 WK), Route [Carcinogen]: DERMAL, Strain/Sex: CD-1/FEMALE): skin: tumor; outcome (Carcinogen: THIRAM, 137-26-8, Doses [Carcinogen]: 100 MG/KG BW 3/WK FOR 3 WK, Doses [Promoter]: 0, 5 UG IN 100 µL ACETONE 3/WK FOR 51 WK BEGINNING 1 WK POST CARCINOGEN TREATMENT (STUDY DURATION: 54 WK), Route [Carcinogen]: DERMAL, Strain/Sex: SWISS/FEMALE): skin: tumor; outcome (Carcinogen: THIRAM, 137-26-8, Doses [Carcinogen]: 100 MG/KG BW IN 100 µL DMSO ONCE, Doses [Promoter]: 5 UG IN 100 µL ACETONE 3/WK BEGINNING 1 WK POST CARCINOGEN DOSE (STUDY DURATION: 52 WK), Route [Carcinogen]: DERMAL, Strain/Sex: SWISS/MALE): skin: tumor; outcome (Carcinogen: THIRAM, 137-26-8, Doses [Carcinogen]: 100 MG/KG BW IN 100 µL DMSO ONCE, Doses [Promoter]: 5 UG IN 100 µL ACETONE 3/WK FOR 3 WK BEGINNING 1 WK POST CARCINOGEN DOSE (STUDY DURATION: 52 WK), Route [Carcinogen]: DERMAL, Strain/Sex: SWISS/FEMALE): skin: tumor; outcome (Carcinogen: THIRAM, 137-26-8, Doses [Carcinogen]: 100 MG/KG BW IN 100 µL DMSO ONCE, Doses [Promoter]: 5 UG IN 100 µL ACETONE 3/WK FOR 51 WK BEGINNING 1 WK POST CARCINOGEN DOSE (STUDY DURATION: 52 WK), Route [Carcinogen]: DERMAL, Strain/Sex: SWISS/MALE): skin: tumor; outcome (Carcinogen: TRANS-4,5-DIHYDROBENZO[J]FLUORANTHENE-4,5-DIOL, 106542-80-7, Doses [Carcinogen]: 0, 1, 3 UMOL (TOTAL DOSE) IN ACETONE SOLUTION 1/2 D FOR 10 DOSES, Doses [Carcinogen]: 0, 1, 3 UMOL (TOTAL DOSE) IN ACETONE SOLUTION 1/2 D FOR 10 DOSES, Doses [Promoter]: 2.5 UG IN ACETONE 3/WK BEGINNING 10 D POST LAST CARCINOGEN DOSE AND CONTINUING FOR 20 WK (STUDY DURATION: 23 WK), Route [Carcinogen]: DERMAL, Strain/Sex: CD-1/FEMALE): skin: tumors; outcome (Carcinogen: TRANS-9,10-DIHYDRO-5,9,10-TRIHYDROXYBENZO[B]FLUORANTHENE, 114451-04-6, Doses [Carcinogen]: 0, 0.04, 0.12, 0.4 UMOL (TOTAL DOSE) APPLIED IN SUBDOSES 1/2 D FOR 5 WK, Doses [Carcinogen]: 0, 0.04, 0.12, 0.4 UMOL (TOTAL DOSE) APPLIED IN SUBDOSES 1/2 D FOR 5 WK, Doses [Promoter]: 2.5 UG IN 100 µL ACETONE 3/WK FOR 20 WK BEGINNING 10 D POST LAST CARCINOGEN DOSE (STUDY DURATION: 26 WK), Route [Carcinogen]: DERMAL, Strain/Sex: CD-1/FEMALE): skin: tumor; outcome (Carcinogen: TRANS-9,10-DIHYDRO-6,9,10-TRIHYDROXYBENZO[B]FLUORANTHENE, 114451-05-7, Doses [Carcinogen]: 0, 0.4 UMOL (TOTAL DOSE) APPLIED IN SUBDOSES 1/2 D FOR 5 WK, Doses [Promoter]: 2.5 UG IN 100 µL ACETONE 3/WK FOR 20 WK BEGINNING 10 D POST LAST CARCINOGEN DOSE (STUDY DURATION: 26 WK), Route [Carcinogen]: DERMAL, Strain/Sex: CD-1/FEMALE): skin: tumor; outcome (Carcinogen: TRANS-9,10-DIHYDROBENZO[J]FLUORANTHENE-9,10-DIOL, 76479-14-6, Doses [Carcinogen]: 0, 3 UMOL (TOTAL DOSE) IN ACETONE SOLUTION 1/2 D FOR 10 DOSES, Doses [Promoter]: 2.5 UG IN ACETONE 3/WK BEGINNING 10 D POST LAST CARCINOGEN DOSE AND CONTINUING FOR 20 WK (STUDY DURATION: 23 WK), Route [Carcinogen]: DERMAL, Strain/Sex: CD-1/FEMALE): skin: tumors; outcome (Carcinogen: VINYL CARBAMATE EPOXIDE, 82617-23-0, Doses [Carcinogen]: 0, 5.8, 11.5 UMOL IN 0.2 ML 15% DMSO 1/WK FOR 5 WK, Doses [Carcinogen]: 0, 5.8, 11.5 UMOL IN 0.2 ML 15% DMSO 1/WK FOR 5 WK, Doses [Promoter]: 0, 2.5 UG IN 0.1 ML ACETONE 18-24 HR PRIOR TO EACH CARCINOGEN DOSE THEN 2/WK FOR DURATION OF STUDY (STUDY DURATION: 22 W, Route [Carcinogen]: DERMAL, Strain/Sex: CD-1/FEMALE): skin: papilloma; outcome (Carcinogen: VINYL CARBAMATE EPOXIDE, 82617-23-0, Doses [Carcinogen]: 1.5, 11.5 UMOL IN 0.2 ML 15% DMSO ONCE, Doses [Promoter]: 0, 2.5 UG IN 0.1 ML ACETONE 18-24 HR PRIOR TO CARCINOGEN DOSE THEN 2/WK FOR DURATION OF STUDY (STUDY DURATION: 22 WK), Route [Carcinogen]: DERMAL, Strain/Sex: CD-1/FEMALE): skin: papilloma; outcome (Carcinogen: VINYL CARBAMATE, 15805-73-9, Doses [Carcinogen]: 0, 5.8, 11.5 UMOL IN 0.2 ML 15% DMSO 1/WK FOR 5 WK, Doses [Carcinogen]: 0, 5.8, 11.5 UMOL IN 0.2 ML 15% DMSO 1/WK FOR 5 WK, Doses [Promoter]: 0, 2.5 UG IN 0.1 ML ACETONE 18-24 HR PRIOR TO EACH CARCINOGEN DOSE THEN 2/WK FOR DURATION OF STUDY (STUDY DURATION: 22 W, Route [Carcinogen]: DERMAL, Strain/Sex: CD-1/FEMALE): skin: papilloma; outcome (Carcinogen: VINYL CARBAMATE, 15805-73-9, Doses [Carcinogen]: 1.15, 11.5 UMOL IN 0.2 ML 15% DMSO ONCE, Doses [Promoter]: 0, 2.5 UG IN 0.1 ML ACETONE 18-24 HR PRIOR TO CARCINOGEN DOSE THEN 2/WK FOR DURATION OF STUDY (STUDY DURATION: 22 WK), Route [Carcinogen]: DERMAL, Strain/Sex: CD-1/FEMALE): skin: papilloma; outcome (Carcinogen: X-RAY, Doses [Carcinogen]: 4.2 GY TO MALE MICE OF THE PARENT GENERATION, Doses [Promoter]: 0, 6.15 UG IN 0.1 ML ACETONE 2/WK FOR 24 WK ADMINISTERED TO F1 OFFSPRING OF IRRADIATED MALES BEGINNING AT 4 MO OF AGE (S, Route [Carcinogen]: WHOLE-BODY IRRADIATION, Strain/Sex: SHR/FEMALE): skin: tumor; outcome (Carcinogen: X-RAY, Doses [Carcinogen]: 4.2 GY TO MALE MICE OF THE PARENT GENERATION, Doses [Promoter]: 0, 6.15 UG IN 0.1 ML ACETONE 2/WK FOR 24 WK ADMINISTERED TO F1 OFFSPRING OF IRRADIATED MALES BEGINNING AT 4 MO OF AGE (S, Route [Carcinogen]: WHOLE-BODY IRRADIATION, Strain/Sex: SHR/MALE): skin: tumor; outcome (Carcinogen: X-RAY, Doses [Carcinogen]: 4.2 GY TO MALE MICE OF THE PARENT GENERATION, Doses [Promoter]: 0, 6.15 UG IN 0.1 ML ACETONE 2/WK FOR 24 WK ADMINISTERED TO F2 GENERATION OF IRRADIATED MALES BEGINNING AT 4 MO OF AGE (, Route [Carcinogen]: WHOLE-BODY IRRADIATION, Strain/Sex: SHR/FEMALE): skin: tumor; outcome (Carcinogen: X-RAY, Doses [Carcinogen]: 4.2 GY TO MALE MICE OF THE PARENT GENERATION, Doses [Promoter]: 0, 6.15 UG IN 0.1 ML ACETONE 2/WK FOR 24 WK ADMINISTERED TO F2 GENERATION OF IRRADIATED MALES BEGINNING AT 4 MO OF AGE (, Route [Carcinogen]: WHOLE-BODY IRRADIATION, Strain/Sex: SHR/MALE): skin: tumor
